These results are taken from patent US11919886B2, “4,9-dioxo-4,9-dihydronaphtho[2,3-B]furan-3-carboxamide derivatives and uses thereof for treating proliferative diseases and infectious diseases” (Academia Sinica, priority 2016, dated 2024).

The subject of one series is H1975 cell line. Kind of series: Sulforhodamine B colorimetric (SRB) assay, H1975. Conditions: Homo sapiens, NCI-H1975, 72 h, H1975 cell line, SRB assay, 72 hours. A general note: In SRB staining, fixed cells bind dye roughly in proportion to their protein.
Series [1] relates to Lung Cancer Cells (H1975). Kind of series: Cell viability by Cell-TiterGlo. It is filed as cell-based. Particulars: Homo sapiens, NCI-H1975, 48 h, two days, read-out: % of the activities in the presence of ~10 μM compound, Lung Cancer Cells (H1975). As to the method:
(§1) Compound 1 and its analogues shown in Table 6 below were tested for their activities on cancer cells and bacterial cells using assays described herein. H1975, MDA-MB231, and MCF7 cells were incubated in the presence of the compounds in cell growth medium containing 10% fetal bovine serum for two days in a mammalian cell culture incubatoe. Cell viability were monitored by using Cell-TiterGlo. Staphylococcus aureus and Escherichia coli were incubated in the presence of the compounds in Muller-Hinton broth for 16-24 hours in a 37° C. incubator. Bacterial growth was monitored by using Alamar Blue (Invitrogen).

Series [2] deals with Breast Cancer Cells (MDA-MB231). Kind of series: Cell viability by Cell-TiterGlo. It is filed as cell-based. Conditions: Homo sapiens, MDA-MB-231, 48 h, two days, read-out: % of the activities in the presence of ~10 μM compound, Breast Cancer Cells (MDA-MB231). As to the method: as §1
The test system of series [3] is Breast Cancer Cells (MCF). Description: Cell viability by Cell-TiterGlo. Type of series: cell-based. Particulars: Homo sapiens, 48 h, two days, read-out: % of the activities in the presence of ~10 μM compound, Breast Cancer Cells (MCF). How it is done: as §1
For the next series, the system named is Escherichia coli. Description: Bacterial growth by Alamar Blue in Muller-Hinton broth. Conditions: 16-24 hours, read-out: % of the activities in the presence of ~10 μM compound, Escherichia coli. It is filed as cell-based. As to the method: as §1
For a further series, the system named is Staphylococcus aureus. The description is as above. Type of series: cell-based. Particulars: ~10 μM, 16-24 hours, Alamar Blue, read-out: % of the activities in the presence of ~10 μM compound, Staphylococcus aureus. How it is done:
as §1
(In general: The colour change of resazurin is a common sign of viable cells or microbes.)

Each structure is given as a SMILES string.

For orientation: IC50 means the concentration that gives 50% inhibition. A higher IC50 goes with weaker potency. As to `Cc1[nH]c2c(c1C(=O)NCCCn1ccnc1)C(=O)c1ccccc1C2=O` [Compound 45, N-(3-(1H-imidazol-1-yl)propyl)-2-methyl-4,9-dioxo-4,9-dihydro-1H-benzo[f]indole-3-carboxamide], the IC50 in the series with H1975 cell line came to 8730 nM.
In the case of `Cc1oc2c(c1C(=O)NCCCN1CCOCC1)C(=O)c1ccccc1C2=O` [Compound 20, 2-Methyl-N-(3-morpholinopropyl)-4,9-dioxo-4,9-dihydronaphtho[2,3-b]furan-3-carboxamide], the half-inhibitory concentration (IC50) with H1975 cell line came out at 80 nM.
The same measure, in the same setting: under `Cc1oc2c(c1C(=O)NCCCN1CCCC1)C(=O)c1ccccc1C2=O` [Compound 18, 2-Methyl-4,9-dioxo-N-(3-(pyrrolidin-1-yl)propyl)-4,9-dihydronaphtho[2,3-b]furan-3-carboxamide] stands 24 nM.
For orientation: melting point means the temperature, or range, at which the solid turns liquid. Compound `Cc1oc2c(c1C(=O)NCCCn1cccc1)C(=O)c1ccccc1C2=O` [Compound 12, N-(3-(1H-pyrrol-1-yl)propyl)-2-methyl-4,9-dioxo-4,9-dihydronaphtho[2,3-b]furan-3-carboxamide] showed a melting point of 143.5 to 150.7 °C. In the series with H1975 cell line, this compound displayed an IC50 of 918 nM.
In the case of `Cc1oc2c(c1C(=O)NCCCCc1ccccc1)C(=O)c1ccccc1C2=O` [Compound 17, 2-Methyl-4,9-dioxo-N-(4-phenylbutyl)-4,9-dihydronaphtho[2,3-b]furan-3-carboxamide], the melting point is 151.4 to 152.7 °C. In the series with H1975 cell line, this compound displayed an IC50 of over 10000 nM.
The matching figures for `Cc1oc2c(c1C(=O)NCCCCn1ccnc1)C(=O)c1ccccc1C2=O` [Compound 13, N-(4-(1H-imidazol-1-yl)butyl)-2-methyl-4,9-dioxo-4,9-dihydronaphtho[2,3-b]furan-3-carboxamide]: 158.6 to 164.1 °C and 250 nM.
For `Cc1oc2c(c1C(=O)N1CCC(C)CC1)C(=O)c1ccccc1C2=O` [Compound 00054506228], the viability at 10 µM in series [1] came to 4.6%; in series [2] it was 54.4%; in series [3], 13.6%. In addition, the activity at 10 µM in the series on Escherichia coli was over 100%; with Staphylococcus aureus, 65.4%.
For `Cc1oc2c(c1C(=O)NC(C)(C)C)C(=O)c1ccccc1C2=O` [Compound 00055422098] the same measures were 3.7%, 69.8%, 35%, over 100% and over 100%.
Compound `CCc1oc2c(c1C(=O)NCCCn1ccnc1)C(=O)c1ccccc1C2=O` [Compound 11, N-(3-(1H-imidazol-1-yl)propyl)-2-ethyl-4,9-dioxo-4,9-dihydronaphtho[2,3-b]furan-3-carboxamide] yielded an IC50 in the series on H1975 cell line of 288 nM.
On the same count and under the same terms, the result for `Cc1oc2c(c1C(=O)NCCn1ccnc1)C(=O)c1ccccc1C2=O` [Compound 5, N-(2-(1H-imidazol-1-yl)ethyl)-2-methyl-4,9-dioxo-4,9-dihydronaphtho [2,3-b]furan-3-carboxamide] reads 280 nM.
For the compound `Cc1oc2c(c1C(=O)N1CCOCC1)C(=O)c1ccccc1C2=O` [Compound 00056034607], the values for the viability at 10 µM in series [1], in series [2] and in series [3] were 4.4%, 61.2% and 12.9%, respectively. The activity at 10 µM in the series on Escherichia coli is over 100%; with Staphylococcus aureus it was 75.8%.
For `CCCCNC(=O)c1c(C)oc2c1C(=O)c1ccccc1C2=O` [Compound 00055422996] the same measures were 4.3%, 20.9%, 6.9%, over 100% and over 100%.
For `Cc1oc2c(c1C(=O)NCCC(C)C)C(=O)c1ccccc1C2=O` [Compound 00055727872] the same measures were 4.2%, 72%, 44.3%, over 100% and over 100%.
For `COCCNC(=O)c1c(C)oc2c1C(=O)c1ccccc1C2=O` [Compound 00054811255] the same measures were 4.2%, 13.4%, 6.5%, over 100% and over 100%.
On to `O=C(NCCN1CCOCC1)c1coc2c1C(=O)c1ccccc1C2=O` [Compound 00053891400], for which the viability at 10 µM in series [1] was 4%; in series [2] it was 12.2%; in series [3], 6.1%. In addition, the activity at 10 µM in the series on Escherichia coli and in the series on Staphylococcus aureus was over 100% in each case.
The compound `CC(C)c1oc2c(c1C(=O)NCCCn1ccnc1)C(=O)c1ccccc1C2=O` [Compound 10, N-(3-(1H-imidazol-1-yl)propyl)-2-isopropyl-4,9-dioxo-4,9-dihydronaphtho[2,3-b]furan-3-carboxamide] gave an IC50 in the series on H1975 cell line of 260 nM.
On the same count and under the same terms, under `O=C1c2ccccc2C(=O)c2c1oc(-c1ccccc1)c2C(=O)NCCCn1ccnc1` [Compound 9, N-(3-(1H-imidazol-1-yl)propyl)-4,9-dioxo-2-phenyl-4,9-dihydronaphtho[2,3-b]furan-3-carboxamide] stands 826 nM.
